Data: ChEMBL document CHEMBL1135075, “Synthesis and biological evaluation of imidazol-2-one and 2-cyanoiminoimidazole derivatives: novel series of PDE4 inhibitors” (Bioorg Med Chem Lett, 2002)

Legend:
Rattus norvegicus = assay: Tested in vivo for lowest active dose that induced inhibitory effect on gastric emptying in rats; format: functional, Stomach
Mus musculus [1] = assay: Evaluated for antiinflammatory activity in the TPA induced ear inflammation model at a dose 2 mg/kg (50 ug); format: functional
Mus musculus [2] = assay: Evaluated for antiinflammatory activity in the TPA induced ear inflammation model at a dose 1 mg/kg (25 ug); format: functional
[3] = target: 3',5'-cyclic-AMP phosphodiesterase 4B (Homo sapiens, UniProt Q07343); assay: Inhibitory activity against recombinant phosphodiesterase 4B (PDE4B) of human mononuclear lymphocytes
Phosphodiesterase 4 = Phosphodiesterase 4 (Rattus norvegicus, UniProt P14270+P14646+P14644+P54748); assay: Displacement of [3H]rolipram from rat forebrain membrane; format: tissue-based, Brain

Chain of 3',5'-cyclic-AMP phosphodiesterase 4B (Q07343 whole entry): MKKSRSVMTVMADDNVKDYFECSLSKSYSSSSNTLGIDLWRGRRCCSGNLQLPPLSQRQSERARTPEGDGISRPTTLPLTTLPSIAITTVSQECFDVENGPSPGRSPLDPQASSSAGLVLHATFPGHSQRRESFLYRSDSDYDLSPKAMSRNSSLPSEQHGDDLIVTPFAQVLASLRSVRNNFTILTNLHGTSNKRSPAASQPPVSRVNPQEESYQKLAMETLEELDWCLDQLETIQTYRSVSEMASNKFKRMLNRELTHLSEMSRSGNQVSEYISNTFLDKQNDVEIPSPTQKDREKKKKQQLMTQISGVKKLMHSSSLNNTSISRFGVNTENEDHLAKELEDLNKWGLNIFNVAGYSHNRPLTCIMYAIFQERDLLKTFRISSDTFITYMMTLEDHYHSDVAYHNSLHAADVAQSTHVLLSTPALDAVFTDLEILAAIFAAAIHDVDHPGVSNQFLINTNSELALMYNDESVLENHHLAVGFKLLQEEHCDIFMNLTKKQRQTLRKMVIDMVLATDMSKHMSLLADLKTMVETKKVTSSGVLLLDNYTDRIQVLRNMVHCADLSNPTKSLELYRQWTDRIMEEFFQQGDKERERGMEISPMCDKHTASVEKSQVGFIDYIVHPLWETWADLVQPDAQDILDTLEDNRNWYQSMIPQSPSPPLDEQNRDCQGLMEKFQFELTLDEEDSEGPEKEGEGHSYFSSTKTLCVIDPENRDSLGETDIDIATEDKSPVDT

IC50 [3] | Ki (Phosphodiesterase 4) | SMILES | LAD (Rattus norvegicus) | inhibition in vivo at 2 mg/kg (Mus musculus [1]) | inhibition in vivo at 1 mg/kg (Mus musculus [2])
 |  | CC(Cn1ccnc1NC#N)c1ccc(OC(F)F)c(OCC2CC2)c1 (centres undefined) | 0.08 mg/kg | 52% | 22%
21 nM |  | COc1ccc(C(C)Cn2ccnc2O)cc1OC1CC2CCC1C2 (centres undefined) | 0.01 mg/kg | 90% | 34%
 |  | COc1ccc(C(C)Cn2ccnc2NC#N)cc1OCC1CC1 (centres undefined) | 1.25 mg/kg | 78% | 38%
39.2 nM |  | Oc1nccn1CC1(c2ccc(OC(F)F)c(OC3CCCC3)c2)CC1 | 0.08 mg/kg |  | 
 |  | COc1ccc(C(C)Cn2ccnc2O)cc1OC1CCOC1 (centres undefined) | 0.02 mg/kg |  | 
 | 220 nM | COc1ccc([C@H](C)Cn2ccnc2NC#N)cc1OC1Cc2ccccc2C1 | >5 mg/kg |  | 54%
< 10 nM |  | CC(Cn1ccnc1O)c1ccc(OC(F)F)c(OC2CCCC2)c1 (centres undefined) | 0.02 mg/kg |  | 
 |  | COc1ccc(C(=O)Nc2c(Cl)cncc2Cl)cc1OC1CCCC1 | 0.5 mg/kg | 69% | 43%
 | 63 nM | COc1ccc([C@@H](C)Cn2cc[nH]/c2=N\C#N)cc1OC1Cc2ccccc2C1 | 2.5 mg/kg |  | 56%
110 nM |  | COc1ccc(CCn2ccnc2O)cc1OC1CCCC1 | 0.08 mg/kg | 81% | 32%
 |  | COc1ccc(C(C)Cn2ccnc2NC#N)cc1OC1CCOC1 (centres undefined) | >1.25 mg/kg | 71% | 38%
341 nM |  | COc1ccc(C2(Cn3ccnc3O)CC2)cc1OC1CCCC1 | 0.63 mg/kg | 66% | 18%
67.6 nM |  | COc1ccc(C(C)Cn2ccnc2NC#N)cc1OCCC1Cc2ccccc2C1 (centres undefined) | >1.25 mg/kg |  | 
 |  | COc1ccc([C@]2(C#N)CC[C@@H](C(=O)O)CC2)cc1OC1CCCC1 [CILOMILAST] | 5 mg/kg | 88% | 69%
 | 180 nM | COc1ccc(C(C)Cn2ccnc2NC#N)cc1OC1Cc2ccccc2C1 (centres undefined) | 2.5 mg/kg | 82% | 51%
 |  | COc1ccc(C2CNC(=O)C2)cc1OC1CCCC1 (centres undefined) [ROLIPRAM] | 0.04 mg/kg | 43% | 6%
> 1000 nM |  | CC(Cn1ccnc1O)c1ccc(OC(F)(F)F)c(OC2CCCC2)c1 (centres undefined) | 1.25 mg/kg |  | 
327 nM |  | COc1ccc(C(C)(F)Cn2ccnc2O)cc1OC1CCOC1 (centres undefined) | 0.31 mg/kg |  | 
> 1000 nM |  | COc1ccc(C(C)(O)Cn2ccnc2O)cc1OC1CCOC1 (centres undefined) | 0.31 mg/kg |  | 
 |  | COc1ccc(C(C)Cn2ccnc2NC#N)cc1OC1CCCC1 (centres undefined) | 1.25 mg/kg | 84% | 50%
85.8 nM | 3.5 nM | COc1ccc(C(C)Cn2ccnc2O)cc1OCC1CC1 (centres undefined) | 0.01 mg/kg | 74% | 56%
24.1 nM |  | COc1ccc(C(C)Cn2ccnc2O)cc1OC1CCCC1 (centres undefined) | 0.01 mg/kg |  | 
24.3 nM |  | COc1ccc(C(F)Cn2ccnc2O)cc1OC1Cc2ccccc2C1 (centres undefined) | 0.08 mg/kg |  | 
399 nM |  | COc1ccc(C(O)Cn2ccnc2O)cc1OC1Cc2ccccc2C1 (centres undefined) | 0.31 mg/kg |  | 
 |  | COc1ccc(C(C)Cn2ccnc2NC#N)cc1OCCCCCc1ccccc1 (centres undefined) | >1.25 mg/kg | 77% | 36%
486 nM |  | COc1ccc(C(=O)Cn2ccnc2O)cc1OC1CCCC1 | 1.25 mg/kg |  | 
277 nM |  | COc1ccc(C(C)C(C)n2ccnc2O)cc1OC1CCCC1 (centres undefined) |  |  | 
28.4 nM |  | CC(Cn1ccnc1NC#N)c1ccc(OC(F)F)c(OCCCCCc2ccccc2)c1 (centres undefined) | >1.25 mg/kg | 69% | 41%
367 nM |  | COc1ccc(C(C)(C)Cn2ccnc2O)cc1OC1CCCC1 | 0.63 mg/kg |  | 
